Test results taken from ChEMBL document CHEMBL5154747, “Discovery of new carbonic anhydrase IX inhibitors as anticancer agents by toning the hydrophobic and hydrophilic rims of the active site to encounter the dual-tail approach” (Eur J Med Chem, 2022).
pIC50: −log10 of the molar value.

Key:
CCRF-CEM = assay: Anticancer activity against human CCRF-CEM cells assessed as cell growth inhibition incubated for 48 hrs by SRB assay; format: functional
HL-60(TB) = assay: Anticancer activity against human HL-60(TB) cells assessed as cell growth inhibition incubated for 48 hrs by SRB assay; format: functional
K562 = assay: Anticancer activity against human K562 cells assessed as cell growth inhibition incubated for 48 hrs by SRB assay; format: functional
RPMI-8226 = assay: Anticancer activity against human RPMI-8226 cells assessed as cell growth inhibition incubated for 48 hrs by SRB assay; format: functional
SR = assay: Anticancer activity against human SR cells assessed as cell growth inhibition incubated for 48 hrs by SRB assay; format: functional
A549 = assay: Anticancer activity against human A549 cells assessed as cell growth inhibition incubated for 48 hrs by SRB assay; format: functional
HOP-62 = assay: Anticancer activity against human HOP-62 cells assessed as cell growth inhibition incubated for 48 hrs by SRB assay; format: functional
HOP-92 = assay: Anticancer activity against human HOP-92 cells assessed as cell growth inhibition incubated for 48 hrs by SRB assay; format: functional
NCI-H460 = assay: Anticancer activity against human NCI-H460 cells assessed as cell growth inhibition incubated for 48 hrs by SRB assay; format: functional
NCI-H522 = assay: Anticancer activity against human NCI-H522 cells assessed as cell growth inhibition incubated for 48 hrs by SRB assay; format: functional
COLO 205 = assay: Anticancer activity against human COLO 205 cells assessed as cell growth inhibition incubated for 48 hrs by SRB assay; format: functional
HCC 2998 = assay: Anticancer activity against human HCC 2998 cells assessed as cell growth inhibition incubated for 48 hrs by SRB assay; format: functional
HCT-116 = assay: Anticancer activity against human HCT-116 cells assessed as cell growth inhibition incubated for 48 hrs by SRB assay; format: functional
HCT-15 = assay: Anticancer activity against human HCT-15 cells assessed as cell growth inhibition incubated for 48 hrs by SRB assay; format: functional
HT-29 = assay: Anticancer activity against human HT-29 cells assessed as cell growth inhibition incubated for 48 hrs by SRB assay; format: functional
SW-620 = assay: Anticancer activity against human SW-620 cells assessed as cell growth inhibition incubated for 48 hrs by SRB assay; format: functional
SF-268 = assay: Anticancer activity against human SF-268 cells assessed as cell growth inhibition incubated for 48 hrs by SRB assay; format: functional
SF-295 = assay: Anticancer activity against human SF-295 cells assessed as cell growth inhibition incubated for 48 hrs by SRB assay; format: functional
SNB-75 = assay: Anticancer activity against human SNB-75 cells assessed as cell growth inhibition incubated for 48 hrs by SRB assay; format: functional
U-251 = assay: Anticancer activity against human U-251 cells assessed as cell growth inhibition incubated for 48 hrs by SRB assay; format: functional
Malme-3M = assay: Anticancer activity against human Malme-3M cells assessed as cell growth inhibition incubated for 48 hrs by SRB assay; format: functional
M14 = assay: Anticancer activity against human M14 cells assessed as cell growth inhibition incubated for 48 hrs by SRB assay; format: functional
MDA-MB-435 = assay: Anticancer activity against human MDA-MB-435 cells assessed as cell growth inhibition incubated for 48 hrs by SRB assay; format: functional
SK-MEL-2 = assay: Anticancer activity against human SK-MEL-2 cells assessed as cell growth inhibition incubated for 48 hrs by SRB assay; format: functional
UACC-62 = assay: Anticancer activity against human UACC-62 cells assessed as cell growth inhibition incubated for 48 hrs by SRB assay; format: functional
OVCAR-3 = assay: Anticancer activity against human OVCAR-3 cells assessed as cell growth inhibition incubated for 48 hrs by SRB assay; format: functional
OVCAR-4 = assay: Anticancer activity against human OVCAR-4 cells assessed as cell growth inhibition incubated for 48 hrs by SRB assay; format: functional
OVCAR-5 = assay: Anticancer activity against human OVCAR-5 cells assessed as cell growth inhibition incubated for 48 hrs by SRB assay; format: functional
NCI/ADR-RES = assay: Anticancer activity against human NCI/ADR-RES cells assessed as cell growth inhibition incubated for 48 hrs by SRB assay; format: functional
A498 = assay: Anticancer activity against human A498 cells assessed as cell growth inhibition incubated for 48 hrs by SRB assay; format: functional
CAKI-1 = assay: Anticancer activity against human CAKI-1 cells assessed as cell growth inhibition incubated for 48 hrs by SRB assay; format: functional
RXF 393 = assay: Anticancer activity against human RXF 393 cells assessed as cell growth inhibition incubated for 48 hrs by SRB assay; format: functional
UO-31 = assay: Anticancer activity against human UO-31 cells assessed as cell growth inhibition incubated for 48 hrs by SRB assay; format: functional
PC-3 = assay: Anticancer activity against human PC-3 cells assessed as cell growth inhibition incubated for 48 hrs by SRB assay; format: functional
DU-145 = assay: Anticancer activity against human DU-145 cells assessed as cell growth inhibition incubated for 48 hrs by SRB assay; format: functional
MCF7 = assay: Anticancer activity against human MCF7 cells assessed as cell growth inhibition incubated for 48 hrs by SRB assay; format: functional
MDA-MB-231 = assay: Anticancer activity against human MDA-MB-231 cells assessed as cell growth inhibition incubated for 48 hrs by SRB assay; format: functional
Hs-578T = assay: Anticancer activity against human Hs-578T cells assessed as cell growth inhibition incubated for 48 hrs by SRB assay; format: functional
T47D = assay: Anticancer activity against human T47D cells assessed as cell growth inhibition incubated for 48 hrs by SRB assay; format: functional
[1] = Cytotoxicity against human HEK293 cells assessed as inhibition of cell viability by MTT assay
[2] = read-out: LC50 (the source's name)

NS(=O)(=O)c1ccc(Nc2nc(N/N=C/c3ccc(C(F)(F)F)cc3)nc(Nc3ccccc3)n2)cc1
GI50 (CCRF-CEM): 3 µM
CC50 (CCRF-CEM; [2]): > 100 µM
GI50 (HL-60(TB)): 3.59 µM
CC50 (HL-60(TB); [2]): > 100 µM
GI50 (K562): 3.51 µM
CC50 (K562; [2]): > 100 µM
GI50 (RPMI-8226): 2.77 µM
LC50 (concentration killing 50% of cells) (RPMI-8226): > 100 µM
GI50 (SR): 3.07 µM
CC50 (SR; [2]): > 100 µM
GI50 (A549): 3.11 µM
LC50 (A549): 87.2 µM
GI50 (HOP-62): 2.15 µM
CC50 (HOP-62; [2]): 69.7 µM
GI50 (HOP-92): 2.38 µM
CC50 (HOP-92; [2]): 39.8 µM
GI50 (NCI-H460): 3.02 µM
CC50 (NCI-H460; [2]): > 100 µM
GI50 (NCI-H522): 2.66 µM
CC50 (NCI-H522; [2]): 87.1 µM
GI50 (COLO 205): 1.86 µM
CC50 (COLO 205; [2]): 10.9 µM
GI50 (HCC 2998): 2.97 µM
CC50 (HCC 2998; [2]): 46.4 µM
GI50 (HCT-116): 3.1 µM
LC50 (concentration killing 50% of cells) (HCT-116): 64 µM
GI50 (HCT-15): 2.32 µM
CC50 (HCT-15; [2]): 52 µM
GI50 (HT-29): 2.44 µM
CC50 (HT-29; [2]): 50.1 µM
GI50 (SW-620): 3.3 µM
CC50 (SW-620; [2]): > 100 µM
GI50 (SF-268): 3.51 µM
LC50 (concentration killing 50% of cells) (SF-268): > 100 µM
GI50 (SF-295): 1.92 µM
CC50 (SF-295; [2]): 8.63 µM
GI50 (SNB-75): 2.05 µM
LC50 (concentration killing 50% of cells) (SNB-75): 37.5 µM
GI50 (U-251): 2.69 µM
CC50 (U-251; [2]): 71.4 µM
GI50 (Malme-3M): 1.87 µM
CC50 (Malme-3M; [2]): 8.15 µM
GI50 (M14): 2.51 µM
CC50 (M14; [2]): 63.3 µM
GI50 (MDA-MB-435): 2.07 µM
LC50 (MDA-MB-435): 9.53 µM
GI50 (SK-MEL-2): 2.17 µM
CC50 (SK-MEL-2; [2]): 42.7 µM
GI50 (UACC-62): 2.35 µM
LC50 (UACC-62): 16.2 µM
GI50 (OVCAR-3): 3.32 µM
LC50 (concentration killing 50% of cells) (OVCAR-3): > 100 µM
GI50 (OVCAR-4): 3.69 µM
LC50 (concentration killing 50% of cells) (OVCAR-4): > 100 µM
GI50 (OVCAR-5): 2.96 µM
CC50 (OVCAR-5; [2]): 39.9 µM
GI50 (NCI/ADR-RES): 12.3 µM
CC50 (NCI/ADR-RES; [2]): > 100 µM
GI50 (A498): 2.61 µM
CC50 (A498; [2]): 63.8 µM
GI50 (CAKI-1): 3.05 µM
CC50 (CAKI-1; [2]): 51.9 µM
GI50 (RXF 393): 1.82 µM
CC50 (RXF 393; [2]): 35.5 µM
GI50 (UO-31): 1.88 µM
CC50 (UO-31; [2]): 15.7 µM
GI50 (PC-3): 2.8 µM
CC50 (PC-3; [2]): 78.5 µM
GI50 (DU-145): 3.31 µM
LC50 (50% lethal concentration) (DU-145): 36.7 µM
GI50 (MCF7): 2.18 µM
LC50 (MCF7): 64.8 µM
GI50 (MDA-MB-231): 2.31 µM
LC50 (concentration killing 50% of cells) (MDA-MB-231): 33.7 µM
GI50 (Hs-578T): 3.07 µM
LC50 (concentration killing 50% of cells) (Hs-578T): > 100 µM
GI50 (T47D): 2.48 µM
LC50 (T47D): > 100 µM

CN(C)c1ccc(/C=N/Nc2nc(Nc3ccccc3)nc(Nc3ccc(S(N)(=O)=O)cc3)n2)cc1
pIC50 [1]: 4.40
